Reference: patent US20250134855A1, “CO[…] AND METHODS OF USING SAME” (LYKOS THERAPEUTICS, INC., priority 2022, published 2025)

Key:
male and female rats = assay: Fertility study, male and female rats; format: in vivo, rat
Procedure: MDMA (0, 2.5, 5, and 10 mg/kg/day) was orally administered to male and female rats before mating. Males were dosed once daily for 28 days prior to pairing and dosing continued until euthanasia. Females were dosed once daily for 21 days prior to pairing and dosing continued though gestational day seven.

[1] = Study MPKF: safety and tolerability (AEs, laboratory, vital signs); format: in vivo, human; details: human, plasma, oral, 120 mg, 1 participant, no AEs reported
From the text: (§1) The MPKF was a Phase 1, open-label, randomized sequence, multi-dose, 2-period crossover food effect study in 16 healthy individuals. The MPKF study evaluated plasma concentrations of both MDMA and the active metabolite 3,4-methylenedioxyamphetamine (MDA). Summary PK Parameters of the preliminary data was based on interim analysis are presented in Table 12 Table 12 Table 12, and Table 13 Table 13 Table 13 for MDMA and MDA, respectively.
(§2) Participants remained at the clinical research unit (CRU) for each Dosing Session from the time of check-in on the night before dosing until discharge 48 hours after dosing for collection of serial blood samples for PK analysis and safety monitoring. IMP was administered on Day 1 following the treatment sequence to which the participant was randomized. An additional outpatient visit occurred 72 hours after dosing to collect a final PK sample, commensurate with the expected PK profiles of MDMA and MDA. Safety assessments were also performed at this visit.
(§3) The washout period between Dosing Sessions was at least 14 days. If a participant experienced emesis within 4 hours of administration, they were to be withdrawn from the study and replaced with a new participant. An End of Study Visit was performed 2 to 10 days after the completion of the final Dosing Session 72-hour follow-up. An informal interim analysis was planned to be conducted after at least 5 participants completed at least 1 Dosing Session to examine PK variability.

healthy individuals = assay: as above; format: in vivo, human
From the text: as §1, §2, §3

[2] = test system: participants with severe PTSD; assay: MAPP1 Phase 3: CAPS-5 total severity score; format: in vivo, human; details: for CFB in CAPS-5 Total Severity Score, LS mean for treatment difference (95% CI) / CFB in CAPS-5 Total Severity Score, LS mean / CAPS-5 Total Severity Score, Mean / CAPS-5 Total Severity Score, Median / CFB in CAPS-5 Total Severity Score, Mean / CFB in CAPS-5 Total Severity Score, Median / Loss of Diagnosis, % / Non-Responder (<10-point reduction in CAPS-5 Total Severity Score), % / Remission, % / Responder (≥10-point reduction in CAPS-5 Total Severity Score), %: MAPP1, mITT; for CFB in CAPS-5 Total Severity Score, LS mean for treatment difference (95% CI): vs placebo with therapy
From the text: FIG. 36 and FIG. 37 show the time course of improvement in Clinician Administered PTSD Scale for DSM-5 (CAPS-5) total severity score versus placebo. Each show a treatment difference between MDMA and placebo after 3 medication sessions with psychological intervention. […] Between the second and third treatment sessions, the difference between the groups appeared to continue to increase in both studies. The primary efficacy measure was change from baseline in the CAPS-5 total severity score at 18 weeks, which was evaluated 2 months after the final dosing session. The CAPS-5 is a 30-item, clinician-rated scale used to assess severity of PTSD symptoms and diagnostic status according to DSM-5 criteria, as described herein. Scores on the CAPS 5 range from 0 to 80, with higher scores indicating more severe PTSD symptoms. In both studies, a secondary efficacy measure was change from baseline in Sheehan Disability Scale (SDS) mean item scores at 18 weeks. The modified SDS is a 3-item, clinician-rated scale measuring the degree of functional impairment in work, family, and social life. Scores on the SDS mean items range from 0 to 10, with higher scores indicating more functional impairment. In these studies, the efficacy assessments were administered by blinded independent raters 18 to 30 days after medication sessions 1 and 2.
A flexible dose of MDMA hydrochloride salt (referred to as MDMA throughout) or placebo, followed by a supplemental half-dose unless contraindicated, was administered during the Treatment Period with manualized psychotherapy in three blinded monthly Experimental Sessions. This ˜12-week Treatment Period was preceded by three Preparatory Sessions. During the Treatment Period, each Experimental Session was followed by three Integrative Sessions of non-drug psychotherapy. Experimental Sessions were followed by an overnight stay. The Primary Outcome measure, the change in Clinician Administered PTSD Scale (CAPS-5), was assessed by a blinded centralized Independent Rater (IR) pool multiple times throughout the study. Three blinded manualized Experimental Sessions of psychotherapy assisted by flexible doses of MDMA·HCl or placebo were administered (see Table 28 below). Initial doses per Experimental Session include 80 mg or 120 mg MDMA compounded with mannitol and magnesium stearate or indistinguishable weight placebos comprised entirely of mannitol and magnesium stearate, followed 1.5 to 2 hours later by a supplemental half-dose (40 mg or 60 mg MDMA·HCl or placebo). Total amounts of MDMA·HCl to be administered per Experimental Session range from 80 mg to 180 mg. All drug is encapsulated with HPMC capsules.
In the first Experimental Session, the initial dose was 80 mg MDMA·HCl or placebo. In the second and third Experimental Sessions, the initial dose may be increased to 120 mg MDMA·HCl or placebo unless contraindicated. The choice of whether to keep the dose the same or change it from the first Experimental Session was made by the therapy team the in consultation with the site physician based on observed response, tolerability to the previously administered dose, and discussion with the participant. In each Experimental Session, 1.5 to 2 hours after the initial dose is given, the participant was administered a supplemental half-dose unless contraindicated. If an AE requiring medical attention occurs between the initial and supplemental dose this was evaluated as a potential contraindication by the site physician. If a participant prefers not to take the supplemental dose, the reason was documented. Participants will not know if they have been assigned MDMA or placebo but can indicate if they want the dose to change or remain the same.
The MDMA assisted therapy (MDMA-AT) approach is detailed in the “Manual for MDMA Assisted Therapy in the Treatment of PTSD,” published by MAPS (MDMA Treatment Manual, available at maps.org/treatment-manual). […]

[3] = de jure estimand, Baseline CAPS-5 T1 (Visit 3)
[4] = de jure estimand, CAPS-5 T2 (Visit 8)
[5] = de jure estimand, CAPS-5 T3 (Visit 13)
[6] = de jure estimand, CAPS-5 T4 (Visit 19)
[7] = de jure estimand, CFB to T2 (Visit 8)
[8] = de jure estimand, CFB to T3 (Visit 13)
[9] = de jure estimand, CFB to T4 (Visit 19)
[10] = T4 (primary) endpoint (Visit 19)

CNC(C)Cc1ccc2c(c1)OCO2 (centres unmarked) [MDMA, 3,4-methylenedioxymethamphetamine]
mean prostate gland weights (male and female rats; all MDMA-treated males relative to controls): decreased
fertility and reproductive performance (male and female rats; oral, up to the highest dose evaluated (10 mg/kg/day)): No effect on fertility and reproductive performance
AUC(0-inf) ([1]; read-out: AUC0-inf at which tolerability is supported): 8920 ng·h/mL
Cmax ([1]; read-out: Cmax at which tolerability is supported): 440 ng/mL
participants with SBP≥160 mmHg or DBP≥100 mmHg or temperature>38.3° C. (healthy individuals; any timepoint): No participant
time of largest mean changes in SBP, DBP, temperature (healthy individuals; fasted condition): 2 h
time of largest mean changes in SBP, DBP, temperature (healthy individuals; fed group): 4 h
difference in largest mean change of SBP, fasted vs fed (healthy individuals; non-clinically significant): about +5 mmHg
difference in largest mean change of temperature, fasted vs fed (healthy individuals; non-clinically significant): ~+0.05 °C
impact on biologic laboratory parameters (healthy individuals; screening to end of study): no significant impact
onset of treatment efficacy (CAPS-5 versus placebo) ([2]; FIG. 36 and FIG. 37, both studies): after the second session
CFB in CAPS-5 Total Severity Score, LS mean for treatment difference (95% CI) ([2]; MMRM, T2 (Visit 8)): −3.69 (−7.93, 0.54)
CFB in CAPS-5 Total Severity Score, LS mean for treatment difference (95% CI) ([2]; MMRM, T3 (Visit 13)): −8.41 (−13.53, −3.29)
CFB in CAPS-5 Total Severity Score, LS mean for treatment difference (95% CI) ([2]; MMRM, T4 (Visit 19)): −11.86 (−17.41, −6.32)
CFB in CAPS-5 Total Severity Score, LS mean ([2]; de jure estimand, MMRM, CFB to T2 (Visit 8)): −10.40
CFB in CAPS-5 Total Severity Score, LS mean ([2]; de jure estimand, MMRM, CFB to T3 (Visit 13)): −17.83
CFB in CAPS-5 Total Severity Score, LS mean ([2]; de jure estimand, MMRM, CFB to T4 (Visit 19)): −24.50
CAPS-5 Total Severity Score, Mean [2, 3]: 44.0
CAPS-5 Total Severity Score, Median [2, 3]: 43.5
CAPS-5 Total Severity Score, Mean [2, 4]: 33.7
CAPS-5 Total Severity Score, Median [2, 4]: 34.5
CAPS-5 Total Severity Score, Mean [2, 5]: 26.2
CAPS-5 Total Severity Score, Median [2, 5]: 28.0
CAPS-5 Total Severity Score, Mean [2, 6]: 19.5
CAPS-5 Total Severity Score, Median [2, 6]: 18.5
CFB in CAPS-5 Total Severity Score, Mean [2, 7]: −10.3
CFB in CAPS-5 Total Severity Score, Median [2, 7]: −9.0
CFB in CAPS-5 Total Severity Score, Mean [2, 8]: −17.7
CFB in CAPS-5 Total Severity Score, Median [2, 8]: −17.5
CFB in CAPS-5 Total Severity Score, Mean [2, 9]: −24.4
CFB in CAPS-5 Total Severity Score, Median [2, 9]: −25.0
Loss of Diagnosis, % ([2]; T2 endpoint (Visit 8)): (23.9) %
Non-Responder (<10-point reduction in CAPS-5 Total Severity Score), % ([2]; T2 endpoint (Visit 8)): (54.3) %
Remission, % ([2]; T2 endpoint (Visit 8)): (8.7) %
Responder (≥10-point reduction in CAPS-5 Total Severity Score), % ([2]; T2 endpoint (Visit 8)): (45.7) %
Loss of Diagnosis, % ([2]; T3 endpoint (Visit 13)): (57.1) %
Non-Responder (<10-point reduction in CAPS-5 Total Severity Score), % ([2]; T3 endpoint (Visit 13)): (26.2) %
Remission, % ([2]; T3 endpoint (Visit 13)): (11.9) %
Responder (≥10-point reduction in CAPS-5 Total Severity Score), % ([2]; T3 endpoint (Visit 13)): (73.8) %
Loss of Diagnosis, % [2, 10]: (66.7) %
Non-Responder (<10-point reduction in CAPS-5 Total Severity Score), % [2, 10]: (11.9) %
Remission, % [2, 10]: (33.3) %
Responder (≥10-point reduction in CAPS-5 Total Severity Score), % [2, 10]: (88.1) %
change from Baseline to Visit 19 in CAPS-5 total severity scores ([2]; MAPP1, MMRM, de jure estimand, mITT): −24.50
no longer met PTSD diagnostic criteria ([2]; MAPP1, Visit 19): 66.7%
remission (CAPS-5 ≤11 and no longer meeting PTSD diagnostic criteria) ([2]; MAPP1, Visit 19): 33.3%
responders (≥10-point reduction in CAPS-5 total severity score) ([2]; MAPP1, Visit 19): 88.1%
